According to patent US5798375A, “Treatment of arteriosclerosis and xanthoma” (Sankyo Company, Limited, priority 1995, dated 1998):

Legend:
Type in all cases: in vivo, Male WHHL rabbits
WHHL rabbits [1] = test: Example 2: aortic cholesterol content
Description: (§1) Each test compound was administered for eight months to the rabbits in the form of an aqueous suspension (0.5% carboxymethylcellulose added). In the control group, a 0.5% carboxymethylcellulose solution only was administered.
The aortic cholesterol content was measured The tunica media and tunica intima at the aortic arch and at the thoracic and abdominal aorta were peeled away with tweezers and cut into pieces. The pieces were extracted with a 2:1 by volume mixture of chloroform and methanol.
The chloroform phase was separated and evaporated to dryness and the residue was dissolved in isopropanol. The total cholesterol and the free cholesterol were measured by a conventional enzymatic method.
Data are expressed by the mean plus or minus standard error (mg/g tissue). The values in parentheses indicate the percentage against the control. A significant difference against the control group was observed by the unpaired student t-test: […]

[2] = Example 2: serum cholesterol in WHHL rabbits; settings: Groups C and D (pioglitazone 20 mg/kg; Compound A 10 mg/kg)
Description: as §1

WHHL rabbits [3] = test: Example 2: incidence and degree of xanthoma of the four legs; parameters: Frequency of massive xanthoma: unit not given here
Description: as §1
The incidence and the degree of xanthoma of the four legs were measured.

WHHL rabbits [4] = test: Example 2: percentage area covered by lesions, aortic arch and whole aorta; parameters: Lesion Area, Aortic Arch, percentage against the control group / Lesion Area, Total Aorta, percentage against the control group: concentration or dose not given beside the values; settings: oral, eight months
Description: as §1
The values actually measured are represented by the mean value plus or minus standard error. The numbers in parentheses represent the percentage lesion area against the control group.
*p<0.05, **p<0.01; significant difference against the control group under the [Mann-Whitney's U-Test A significant difference (p<0.05) was observed between Groups B and F, between Groups C and E and between Groups D and F at the aortic arch, and between Groups C and E over the total aorta.

WHHL rabbits [5] = test: Example 2: average thickening of intima in aorta; parameters: Average thickening of intima, Aortic Arch, percentage against the control group / Average thickening of intima, Total Aorta, percentage against the control group: concentration or dose not given beside the values
Description: as §1
The values actually measured are represented as the mean value plus or minus a standard error (μm). The numbers in parentheses represent the percentage intimal thickening against the control group. A significant difference was observed between Groups D and F at the aortic arch, and between Groups C and E and between Groups D and F over the total aorta (p<0.05) under the Mann-Whitney's U-Test.
The average thickening of the intima is calculated by the cross-sectional area of the aortic tunica intima one section from the arch and two sections from the thoracic and abdominal portions, divided by the length of the tunica media.

[6] = oral, eight months, control 100 (14/14), *p < 0.05, **p < 0.01 vs control

Q: With `CCc1ccc(CCOc2ccc(CC3SC(=O)NC3=O)cc2)nc1` (stereo not drawn) [Pioglitazone, 5-{4-[2-(5-ethylpyridin-2-yl)ethoxy]benzyl}-2,4-thiazolidinedione] as the molecule, how does the “Cholesterol level of Thoracic and Abdominal Aorta, Esterified” value (WHHL rabbits [1]; mean ± standard error, control 5.3 ± 1.7) read?
A: 10.5 ± 3.8 mg/g tissue

Q: And the “Cholesterol Content of Aortic Arch, Esterified” value (WHHL rabbits [1]; mean ± standard error, control 6.5 ± 1.4, *p < 0.05)?
A: 6.6 ± 2.7 mg/g tissue

Q: What about the “Cholesterol level of Thoracic and Abdominal Aorta, Free” value (WHHL rabbits [1]; mean ± standard error, control 14.8 ± 2.3, *p < 0.05 vs control) of the same molecule?
A: 23.4 ± 3.8 mg/g tissue

Q: What about the “Cholesterol level of Thoracic and Abdominal Aorta, Total” value (WHHL rabbits [1]; mean ± standard error, control 20.1 ± 2.3, *p < 0.05, **p < 0.02 vs control) of the same molecule?
A: 33.9 ± 7.3 mg/g tissue

Q: What about the “Cholesterol Content of Aortic Arch, Free” value (WHHL rabbits [1]; mean ± standard error, control 20.6 ± 2.9) of the same molecule?
A: 26.9 ± 2.3 mg/g tissue

Q: What about the “Cholesterol Content of Aortic Arch, Esterified, percentage against the control” value (WHHL rabbits [1]; number in parentheses) of the same molecule?
A: 102%

Q: And the “Cholesterol Content of Aortic Arch, Free, percentage against the control” value (WHHL rabbits [1]; number in parentheses)?
A: 131%

Q: What about the “Cholesterol Content of Aortic Arch, Total, percentage against the control” value (WHHL rabbits [1]; number in parentheses) of the same molecule?
A: 124%

Q: And the “Cholesterol level of Thoracic and Abdominal Aorta, Esterified, percentage against the control” value (WHHL rabbits [1]; number in parentheses)?
A: 198%

Q: What about the “Cholesterol level of Thoracic and Abdominal Aorta, Free, percentage against the control” value (WHHL rabbits [1]; number in parentheses) of the same molecule?
A: 158%

Q: And the “Cholesterol level of Thoracic and Abdominal Aorta, Total, percentage against the control” value (WHHL rabbits [1]; number in parentheses)?
A: 169%

Q: And the “reduction of the serum cholesterol levels” value [2]?
A: no reduction

Q: What about the “Frequency of massive xanthoma” value (WHHL rabbits [3]; control 57, *p < 0.05, **p < 0.01 vs control) of the same molecule?
A: 68

Q: And the “incidence of xanthoma” value (WHHL rabbits [3]; forelegs and hindlegs)?
A: slightly less frequent incidence of xanthoma

Q: And the “Distribution of severity of lesion: (-) no lesions” value (WHHL rabbits [3]; number of legs, control 0)?
A: 2

Q: What about the “Distribution of severity of lesion: (+++) severe lesion” value (WHHL rabbits [3]; number of legs, control 6) of the same molecule?
A: 8

Q: What about the “Distribution of severity of lesion: (++) moderate lesion” value (WHHL rabbits [3]; number of legs, control 10) of the same molecule?
A: 11

Q: What about the “Distribution of severity of lesion: (+) slight lesion” value (WHHL rabbits [3]; number of legs, control 12) of the same molecule?
A: 7

Q: What about the “Incidence of xanthoma, Forelegs” value (WHHL rabbits [3]; [6]) of the same molecule?
A: 100%

Q: And the “Incidence of xanthoma, Hindlegs” value (WHHL rabbits [3]; [6])?
A: 86%

Q: And the “Incidence of xanthoma, Total” value (WHHL rabbits [3]; oral, eight months, control 100 (28/28), *p < 0.05, **p < 0.01 vs control)?
A: 93%

Q: And the “Lesion Area, Aortic Arch, percentage against the control group” value (WHHL rabbits [4]; number in parentheses)?
A: 88%

Q: And the “Lesion Area, Total Aorta, percentage against the control group” value (WHHL rabbits [4]; number in parentheses)?
A: 108%

Q: What about the “Lesion Area, Total Aorta” value (WHHL rabbits [4]; pravastatin 50, pioglitazone 20, Compound A 10 mg/kg, mean ± standard error, *p<0.05, **p<0.01 vs control) of the same molecule?
A: 54 ± 8%

Q: What about the “Lesion Area, Aortic Arch” value (WHHL rabbits [4]; pravastatin 50, pioglitazone 20, Compound A 10 mg/kg, mean ± standard error, control 82 ± 5, *p<0.05, **p<0.01 vs control) of the same molecule?
A: 72 ± 10%

Q: What about the “suppression of intimal thickening” value (WHHL rabbits [5]; combinations compared with Groups C and D) of the same molecule?
A: no suppression of hypertrophy

Q: And the “Average thickening of intima, Aortic Arch, percentage against the control group” value (WHHL rabbits [5]; number in parentheses)?
A: 103%

Q: And the “Average thickening of intima, Total Aorta, percentage against the control group” value (WHHL rabbits [5]; number in parentheses)?
A: 115%

Q: What about the “Average thickening of intima in aorta, Total Aorta” value (WHHL rabbits [5]; oral, eight months, pravastatin 50, pioglitazone 20, Compound A 10 mg/kg, mean ± standard error, control 154 ± 33) of the same molecule?
A: 177 ± 26 μm

Q: And the “Average thickening of intima in aorta, Aortic Arch” value (WHHL rabbits [5]; oral, eight months, pravastatin 50, pioglitazone 20, Compound A 10 mg/kg, mean ± standard error, control 237 ± 63)?
A: 245 ± 37 μm
